{"source": "patent US8506950B2", "about": "“Degradable microcapsules” (ETH Zurich, priority 2008, dated 2013)", "key": {"rLHR [1]": {"molecular_target": "T1, rLHR (Rattus norvegicus, UniProt P16235)", "T1 sequence (P16235 27-700)": "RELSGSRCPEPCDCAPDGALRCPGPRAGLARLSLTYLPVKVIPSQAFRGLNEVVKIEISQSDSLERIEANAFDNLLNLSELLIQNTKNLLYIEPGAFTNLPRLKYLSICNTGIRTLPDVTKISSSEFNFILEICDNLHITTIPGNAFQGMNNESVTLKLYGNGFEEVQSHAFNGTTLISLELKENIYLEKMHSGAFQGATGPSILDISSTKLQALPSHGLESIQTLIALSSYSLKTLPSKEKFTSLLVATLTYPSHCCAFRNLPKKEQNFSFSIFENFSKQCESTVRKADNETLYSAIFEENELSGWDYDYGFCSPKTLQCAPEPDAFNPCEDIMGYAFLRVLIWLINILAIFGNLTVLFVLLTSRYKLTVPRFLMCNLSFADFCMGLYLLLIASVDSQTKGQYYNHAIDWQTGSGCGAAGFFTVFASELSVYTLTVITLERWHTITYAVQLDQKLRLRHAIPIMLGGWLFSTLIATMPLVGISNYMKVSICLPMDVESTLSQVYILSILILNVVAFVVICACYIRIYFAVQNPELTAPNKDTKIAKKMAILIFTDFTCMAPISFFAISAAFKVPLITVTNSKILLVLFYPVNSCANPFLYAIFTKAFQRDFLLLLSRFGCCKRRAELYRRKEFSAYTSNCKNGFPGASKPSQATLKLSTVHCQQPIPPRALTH", "test": "bLH-dependent luciferase expression in stable rLHR clone 6 (CK04)", "format": "cell-based", "design": "Full-length cDNAs encoding the LHRs of rat (r) and bovine (b) origin; expressed in transfected cells; host or cells: CK04: HEK293T stably cotransfected with pLEN-rLHR and pZeoSV2(+), clone 6", "settings": "clone 6, 500 ng/ml bLH, pCRE-Luc", "protocol": "HEK293T cells were cotransfected with pLEN-LHR and pZeoSV2. After clonal expansion several single clones were transiently transfected with pCRE-Luc and screened for the functional expression of rLHR by their ability to respond to bLH. […] (□) no bLH; (▪) 500 ng/ml bLH. Luciferase expression was expressed as relative light units (RLU).\n(§1) Functional expression of LHRs on the cell surface results in the stimulation of PKA and an increase of intracellular cAMP in response to bLH. It was evaluated whether the activated LHR-signaling may induce a PKA-responsive promoter. […] 24 hours post-transfection the cells were induced by bLH and the SEAP expression was determined over time. […] In comparing rLHR- and bLHR-expressing cells a 3-fold increase in maximal SEAP expression in response to bLH of the rLHR over the bLHR was detected. […]\n(§2) The intracellular cAMP production of cells was quantified using the cAMP Fluorescence Polarization (FP) Biotrak Immunoassay System (GE Healthcare Bio-Sciences GmbH, Otelfingen, Switzerland, Cat No. RPN3595) according to the manufacturer's protocol. The expression of firefly luciferase was determined with the Tropix Luciferase Assay Kit (Applied Biosystems, Bedford, USA, Cat No. BC100L). […] Enhanced YFP-expression was detected by fluorescence microscopy (Leica Microsystems, Wetzlar, Germany)"}, "rLHR [2]": {"molecular_target": "T1, rLHR", "test": "PCRE controlled luciferase expression in HEK293T transiently transfected with rLHR", "format": "cell-based", "design": "Full-length cDNAs encoding the LHRs of rat (r) and bovine (b) origin; expressed in transfected cells; host or cells: HEK293T, transient transfection with pLEN-rLHR", "settings": "500 ng/ml bLH, 6 h post-induction, pLEN-rLHR + pCRE-Luc", "protocol": "HEK293T cells were transiently transfected for rLHR and PCRE controlled luciferase expression. 24 hours after transfection the cells were transferred to a 96-well plate, cultured for 12 h and induced by the addition of 500 ng/ml bLH. The luciferase expression was measured 6 h post-induction. […] Luciferase expression was expressed as relative light units (RLU).\nas §1, §2"}}, "note": "Values joined by “and” are separate entries in the source; they are usually repeats but may differ in a detail not shown here. Identical values can stand only once.", "data": [{"substance": "bovine luteinizing hormone [bLH]", "values": [{"measurement": "induction of luciferase expression in response to bLH", "setting": "rLHR [1]", "result": "17.0±0.2", "unit": "fold"}, {"measurement": "increase in luciferase expression", "setting": "rLHR [2]", "result": "10 fold and 9.9±0.1 fold"}]}]}
